Results published in patent US20040058957A1, “Benzothiophene derivatives and herbicidal compositions containing the same” (priority 2000, published 2004).

Columns and labels:
Type in all cases: in vivo
Settings in all cases: rated 30 days after application
Scirpus juncoides [1] = assay: Submersion test, treatment 3 days after transplantation: herbicidal effect
Method: (§1) A mixture consisting of 57 parts by weight of talc and 40 parts by weight of bentonite as carrier and 3 parts by weight of sodium alkylbenzenesulfonate as surfactant was pulverized and mixed uniformly to obtain a carrier for wettable powder. Each herbicidal composition was prepared by uniformly pulverizing and mixing 90 parts by weight of the carrier for wettable powder and 10 parts by weight of the benzothiophene derivative produced in each example.
(§2) Seeds of Scirpus juncoides were sowed onto paddy field soil in a Wagner pot of 1/2000 are. Then, rice seedlings of 2.5 leaf stage were transplanted in the soil. Water was pored into the pot so as to submerge the soil at a depth of 3 cm. The pot was placed in a greenhouse maintained at 20 to 25° C. for vegetation. After 3 days from transplantation of the rice seedlings, a predetermined amount of the herbicidal composition prepared in the step [1] was applied to the pot. After 30 days from the application of the herbicidal composition, the herbicidal effect and injury to the paddy rice were determined.
(§3) The herbicidal effect and the injury to crops in the above tests (1) and (2) were evaluated based on the following ratings.
(§4) The degree of weed control (%) was calculated from the weights of the above-ground parts of fresh weeds in the treated area and the untreated area using the following equation:
(§5) Degree of weed control (%)=[1−(weight of weeds in treated area)/(weight of weeds in untreated area)]×100
(§6) The herbicidal effect was determined according to the following ratings: […]

paddy rice = assay: Submersion test, treatment 3 days after transplantation: injury to paddy rice; parameters: key: 0: No injury; 1: Substantially no injury; 2: Slight injury; 3: Some injury; 4: Remarkable injury; 5: Almost all crops dead
Method: A mixture consisting of 57 parts by weight of talc and 40 parts by weight of bentonite as carrier and 3 parts by weight of sodium alkylbenzenesulfonate as surfactant was pulverized and mixed uniformly to obtain a carrier for wettable powder. […] Then, rice seedlings of 2.5 leaf stage were transplanted in the soil. Water was pored into the pot so as to submerge the soil at a depth of 3 cm. The pot was placed in a greenhouse maintained at 20 to 25° C. for vegetation. […] After 30 days from the application of the herbicidal composition, the herbicidal effect and injury to the paddy rice were determined. […] The injury to crops was evaluated according to the following ratings: [table]

Scirpus juncoides [2] = assay: Submersion test, treatment 10 days after transplantation: herbicidal effect
Method: as §1
as §2, with “vegetation. After 10 days from” for “vegetation. After 3 days from”
as §3, §4, §5, §6

Row | SMILES | Herbicidal effect Scirpus juncoides (Scirpus juncoides [1]; application rate 100 g/ha) | Herbicidal effect Scirpus juncoides (Scirpus juncoides [1]; application rate 200 g/ha) | Injury paddy rice (paddy rice; application rate 100 g/ha) | Injury paddy rice (paddy rice; application rate 200 g/ha) | Herbicidal effect Scirpus juncoides (Scirpus juncoides [2]; application rate 100 g/ha) | Herbicidal effect Scirpus juncoides (Scirpus juncoides [2]; application rate 200 g/ha)
1 | CSC1Cc2c(ccc(C(=O)C3=C(Cl)CCCC3=O)c2Cl)S1(=O)=O (stereo not drawn) [Compound No. 17, 4-chloro-2-methylthio-5-(3-chloro-1-oxo-2-cyclohexen-2-yl)carbonyl-2,3-dihydrobenzothiophene 1,1-dioxide] | 5 (90% or higher (almost completely dead)) | 5 (90% or higher (almost completely dead)) | 0 | 0 | 5 (90% or higher (almost completely dead)) | 5 (90% or higher (almost completely dead))
2 | CS(=O)(=O)C1Cc2c(ccc(C(=O)C3=C(Cl)CCCC3=O)c2Cl)S1(=O)=O (stereo not drawn) [Compound No. 18, 4-chloro-2-methanesulfonyl-5-(3-chloro-1-oxo-2-cyclohexen-2-yl)carbonyl-2,3-dihydrobenzothiophene 1,1-dioxide] | 4 (70% or higher but less than 90%) | 5 (90% or higher (almost completely dead)) | 0 | 0 | 4 (70% or higher but less than 90%) | 5 (90% or higher (almost completely dead))
3 | CCSC1Cc2c(ccc(C(=O)C3=C(Cl)CCCC3=O)c2Cl)S1(=O)=O (stereo not drawn) [Compound No. 19, 4-chloro-2-ethylthio-5-(3-chloro-1-oxo-2-cyclohexen-2-yl)carbonyl-2,3-dihydrobenzothiophene 1,1-dioxide] | 5 (90% or higher (almost completely dead)) | 5 (90% or higher (almost completely dead)) | 0 | 0 | 4 (70% or higher but less than 90%) | 5 (90% or higher (almost completely dead))
4 | COCCSC1Cc2c(ccc(C(=O)C3=C(Cl)CCCC3=O)c2Cl)S1(=O)=O (stereo not drawn) [Compound No. 25, 4-chloro-2-(2-methoxyethyl)thio-5-(3-chloro-1-oxo-2-cyclohexen-2-yl)carbonyl-2,3-dihydrobenzothiophene 1,1-dioxide] | 4 (70% or higher but less than 90%) | 5 (90% or higher (almost completely dead)) | 0 | 0 | 4 (70% or higher but less than 90%) | 5 (90% or higher (almost completely dead))
5 | COC(=O)CSC1Cc2c(ccc(C(=O)C3=C(Cl)CCCC3=O)c2Cl)S1(=O)=O (stereo not drawn) [Compound No. 27, 4-chloro-2-(methoxycarbonylmethyl)thio-5-(3-chloro-1-oxo-2-cyclohexen-2-yl)carbonyl-2,3-dihydrobenzothiophene 1,1-dioxide] | 4 (70% or higher but less than 90%) | 5 (90% or higher (almost completely dead)) | 0 | 0 | 4 (70% or higher but less than 90%) | 5 (90% or higher (almost completely dead))
6 | CSC1Cc2c(ccc(C(=O)C3=C(SCCO)CCCC3=O)c2Cl)S1(=O)=O (stereo not drawn) [Compound No. 31, 4-chloro-2-methylthio-5-[3-(2-hydroxyethyl)thio-1-oxo-2-cyclohexen-2-yl]carbonyl-2,3-dihydrobenzothiophene 1,1-dioxide] | 5 (90% or higher (almost completely dead)) | 5 (90% or higher (almost completely dead)) | 0 | 0 | 5 (90% or higher (almost completely dead)) | 5 (90% or higher (almost completely dead))
7 | CSC1Cc2c(ccc(C(=O)C3=C(SCC(C)O)CCCC3=O)c2Cl)S1(=O)=O (stereo not drawn) [Compound No. 33, 4-chloro-2-methylthio-5-[3-(2-hydroxy-1-propyl)thio-1-oxo-2-cyclohexen-2-yl]carbonyl-2,3-dihydrobenzothiophene 1,1-dioxide] | 4 (70% or higher but less than 90%) | 5 (90% or higher (almost completely dead)) | 0 | 0 | 4 (70% or higher but less than 90%) | 5 (90% or higher (almost completely dead))
8 | CSC1Cc2c(ccc(C(=O)C3=C(SCCOC(C)=O)CCCC3=O)c2Cl)S1(=O)=O (stereo not drawn) [Compound No. 34, 4-chloro-2-methylthio-5-[3-(2-acetoxyethyl)thio-1-oxo-2-cyclohexen-2-yl]carbonyl-2,3-dihydrobenzothiophene 1,1-dioxide] | 4 (70% or higher but less than 90%) | 5 (90% or higher (almost completely dead)) | 0 | 0 | 4 (70% or higher but less than 90%) | 5 (90% or higher (almost completely dead))
9 | CSC1Cc2c(ccc(C(=O)C3=C(Sc4nccn4C)CCCC3=O)c2Cl)S1(=O)=O (stereo not drawn) [Compound No. 35, 4-chloro-2-methylthio-5-[3-(1-methylimidazol-2-yl)thio-1-oxo-2-cyclohexen-2-yl]carbonyl-2,3-dihydrobenzothiophene 1,1-dioxide] | 4 (70% or higher but less than 90%) | 5 (90% or higher (almost completely dead)) | 0 | 0 | 4 (70% or higher but less than 90%) | 5 (90% or higher (almost completely dead))
10 | CCOC1=C(C(=O)c2ccc3c(c2Cl)CC(SC)S3(=O)=O)C(=O)CCC1 (stereo not drawn) [Compound No. 37, 4-chloro-2-methylthio-5-(3-ethoxy-1-oxo-2-cyclohexen-2-yl)carbonyl-2,3-dihydrobenzothiophene 1,1-dioxide] | 5 (90% or higher (almost completely dead)) | 5 (90% or higher (almost completely dead)) | 0 | 0 | 5 (90% or higher (almost completely dead)) | 5 (90% or higher (almost completely dead))
11 | CSC1Cc2c(ccc(C(=O)C3=C(N4CCC=N4)CCCC3=O)c2Cl)S1(=O)=O (stereo not drawn) [Compound No. 38, 4-chloro-2-methylthio-5-[3-(4,5-dihydropyrazol-1-yl)-1-oxo-2-cyclohexen-2-yl]carbonyl-2,3-dihydrobenzothiophene 1,1-dioxide] | 4 (70% or higher but less than 90%) | 5 (90% or higher (almost completely dead)) | 0 | 0 | 4 (70% or higher but less than 90%) | 5 (90% or higher (almost completely dead))
12 | CSC1Cc2c(ccc(C(=O)C3=C(n4cccn4)CCCC3=O)c2Cl)S1(=O)=O (stereo not drawn) [Compound No. 39, 4-chloro-2-methylthio-5-[3-(pyrazol-1-yl)-1-oxo-2-cyclohexen-2-yl]carbonyl-2,3-dihydrobenzothiophene 1,1-dioxide] | 4 (70% or higher but less than 90%) | 5 (90% or higher (almost completely dead)) | 0 | 0 | 4 (70% or higher but less than 90%) | 5 (90% or higher (almost completely dead))
13 | CSC1Cc2c(ccc(C(=O)C3C(=O)CCCC3=O)c2Br)S1(=O)=O (stereo not drawn) [Compound No. 41, 4-bromo-2-methylthio-5-(1,3-dioxocyclohex-2-yl)carbonyl-2,3-dihydrobenzothiophene 1,1-dioxide] | 5 (90% or higher (almost completely dead)) | 5 (90% or higher (almost completely dead)) | 0 | 0 | 5 (90% or higher (almost completely dead)) | 5 (90% or higher (almost completely dead))
